The assay deals with T1, PsmtLPD1 (mtLPD1; PsL) (Lathyrus oleraceus, UniProt P31023).
T1 sequence (P31023 32-501): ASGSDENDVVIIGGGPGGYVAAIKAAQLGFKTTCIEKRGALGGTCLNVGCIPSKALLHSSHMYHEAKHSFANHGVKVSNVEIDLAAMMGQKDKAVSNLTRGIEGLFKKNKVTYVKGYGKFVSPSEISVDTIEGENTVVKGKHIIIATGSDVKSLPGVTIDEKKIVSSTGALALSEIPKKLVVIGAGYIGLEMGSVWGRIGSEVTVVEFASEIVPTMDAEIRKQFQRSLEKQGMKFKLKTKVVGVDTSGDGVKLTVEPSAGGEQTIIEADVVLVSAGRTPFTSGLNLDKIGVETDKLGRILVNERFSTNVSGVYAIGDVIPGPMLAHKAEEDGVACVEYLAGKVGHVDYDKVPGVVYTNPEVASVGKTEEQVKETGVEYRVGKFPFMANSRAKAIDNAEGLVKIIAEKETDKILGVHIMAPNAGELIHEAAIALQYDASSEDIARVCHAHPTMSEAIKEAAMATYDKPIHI
Nature of the assay: spectrophotometric at […] nm, forward direction. The format is biochemical.

The values below come from publication doi:10.1101/2022.04.02.486831v1 (biorxiv, 2022).

`NC(=O)C1=CN([C@@H]2O[C@H](COP(=O)(O)OP(=O)(O)OC[C@H]3O[C@@H](n4cnc5c(N)ncnc54)[C@H](O)[C@@H]3O)[C@@H](O)[C@H]2O)C=CC1` [NADH] returned an inhibition constant Ki of around 66.1 µM.
